As a reminder, the IC50 is the concentration needed to halve the response being measured.

This experiment deals with T1, GCS (Canis lupus familiaris, UniProt A0A8I3MXG6).
T1 sequence (A0A8I3MXG6 1-394): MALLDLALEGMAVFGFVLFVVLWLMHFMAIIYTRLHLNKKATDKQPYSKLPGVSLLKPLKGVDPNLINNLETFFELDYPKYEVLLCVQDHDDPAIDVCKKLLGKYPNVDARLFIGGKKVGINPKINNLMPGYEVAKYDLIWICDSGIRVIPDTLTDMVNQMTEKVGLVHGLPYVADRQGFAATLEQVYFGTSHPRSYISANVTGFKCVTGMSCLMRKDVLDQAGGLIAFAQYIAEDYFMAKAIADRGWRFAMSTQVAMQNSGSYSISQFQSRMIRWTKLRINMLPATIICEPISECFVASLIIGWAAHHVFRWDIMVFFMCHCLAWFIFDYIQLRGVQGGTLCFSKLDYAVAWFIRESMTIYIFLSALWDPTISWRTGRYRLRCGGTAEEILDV
Nature of the experiment: Assay 1: GCS Enzymatic Assay (MDCK cell lysate, C6-NBD-Ceramide, LC/MS). Format: biochemical, canine. Particulars: Table 2; for IC50: data without asterisk, read-out: IC50 (nM) generated from Assay 1; for % inhibition generated from Assay 1: data marked by *. In outline: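 LC/MS/MS measurement of glucosylceramide and NBD-ceramide after a 1 h, 37 °C reaction with 100 μM UDP-glucose and 10 μM C6-NBD-ceramide gave IC50s or percent inhibition.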

Bounds are passed on as bounds.

Take `O=C(N[C@H](CN1CCCC1)[C@H](O)c1cc(F)c2c(c1)OCCO2)C(F)(F)CCc1ccc2cc(F)ccc2c1` [Compound 87, 2,2-difluoro-N-((1R,2R)-1-(8-fluoro-2,3-dihydrobenzo[b][1,4]dioxin-6-yl)-1-hydroxy-3-(pyrrolidin-1-yl)propan-2-yl)-4-(6-fluoronaphthalen-2-yl)butanamide]: the IC50 is less than 50 nM. Turning to `O=C(N[C@H](CN1CCCC1)[C@H](O)c1ccc(OCC(F)(F)F)nc1)C(F)(F)CCc1ccc2cc(F)ccc2c1` [Compound 88, 2,2-difluoro-4-(6-fluoronaphthalen-2-yl)-N-((1R,2R)-1-hydroxy-3-(pyrrolidin-1-yl)-1-(6-(2,2,2-trifluoroethoxy)pyridin-3-yl)propan-2-yl)butanamide], the “% inhibition generated from Assay 1” value is listed as “A* (the compound had a % inhibition of a percent inhibition of greater than or equal to about 50%)”. As to `O=C(N[C@H](CN1CCC1)[C@H](O)c1cc(F)c2c(c1)OCCO2)C(=O)c1cc2cc(Cl)ccc2o1` [Compound 89, N-((1R,2R)-3-(azetidin-1-yl)-1-(8-fluoro-2,3-dihydrobenzo[b][1,4]dioxin-6-yl)-1-hydroxypropan-2-yl)-2-(5-chlorobenzofuran-2-yl)-2-oxoacetamide], the IC50 was less than 50 nM.

`O=C(CCc1ccc2cc(F)ccc2c1)C(=O)N[C@H](CN1CCCC1)[C@H](O)c1ccc2c(c1)OCCO2` [Compound 90, N-((1R,2R)-1-(2,3-dihydrobenzo[b][1,4]dioxin-6-yl)-1-hydroxy-3-(pyrrolidin-1-yl)propan-2-yl)-4-(6-fluoronaphthalen-2-yl)-2-oxobutanamide]: the IC50 is less than 50 nM. In the case of `O=C(N[C@H](CN1CCCC1)[C@H](O)c1ccc(OCC(F)(F)F)nc1)C(F)(F)C1Cc2ccc(Cl)cc2C1` (stereo partly drawn) [Compound 91, 2-(5-chloro-2,3-dihydro-1H-inden-2-yl)-2,2-difluoro-N-((1R,2R)-1-hydroxy-3-(pyrrolidin-1-yl)-1-(6-(2,2,2-trifluoroethoxy)pyridin-3-yl)propan-2-yl)acetamide], the “% inhibition generated from Assay 1” value is reported as “B* (the compound had a % inhibition of greater than or equal to about 3% but less than about 50%)”.

Turning to `O=C(N[C@H](CN1CCC1)[C@H](O)c1cc(F)c2c(c1)OCCO2)C(F)(F)C1Cc2ccc(Cl)cc2C1` (stereo partly drawn) [Compound 92, N-((1R,2R)-3-(azetidin-1-yl)-1-(8-fluoro-2,3-dihydrobenzo[b][1,4]dioxin-6-yl)-1-hydroxypropan-2-yl)-2-(5-chloro-2,3-dihydro-1H-inden-2-yl)-2,2-difluoroacetamide], the IC50 is less than 50 nM.

In the case of `O=C(N[C@H](CN1CCCC1)[C@H](O)c1cc(F)c2c(c1)OCCO2)C(F)(F)C1Cc2ccc(Cl)cc2C1` (stereo partly drawn) [Compound 93, 2-(5-chloro-2,3-dihydro-1H-inden-2-yl)-2,2-difluoro-N-((1R,2R)-1-(8-fluoro-2,3-dihydrobenzo[b][1,4]dioxin-6-yl)-1-hydroxy-3-(pyrrolidin-1-yl)propan-2-yl)acetamide], the IC50 was less than 50 nM. As for `CC(C)Oc1ccc([C@@H](O)[C@@H](CN2CCCC2)NC(=O)C(F)(F)c2cc3cc(Cl)ccc3o2)cc1Cl` [Compound 94, N-((1R,2R)-1-(3-chloro-4-isopropoxyphenyl)-1-hydroxy-3-(pyrrolidin-1-yl)propan-2-yl)-2-(5-chlorobenzofuran-2-yl)-2,2-difluoroacetamide], the IC50 is less than 50 nM. The same measure, in the same setting: next, `O=C(N[C@H](CN1CCCC1)[C@H](O)c1cc(F)c2c(c1)OCCO2)C(=O)c1cc2cc(Cl)ccc2o1` [Compound 95, 2-(5-chlorobenzofuran-2-yl)-N-((1R,2R)-1-(8-fluoro-2,3-dihydrobenzo[b][1,4]dioxin-6-yl)-1-hydroxy-3-(pyrrolidin-1-yl)propan-2-yl)-2-oxoacetamide]: less than 50 nM. In the case of `CC1CN(C[C@@H](NC(=O)C(F)(F)CCc2ccc3cc(F)ccc3c2)[C@H](O)c2ccc3c(c2)OCCO3)C1` [Compound 96, N-((1R,2R)-1-(2,3-dihydrobenzo[b][1,4]dioxin-6-yl)-1-hydroxy-3-(3-methylazetidin-1-yl)propan-2-yl)-2,2-difluoro-4-(6-fluoronaphthalen-2-yl)butanamide], the “% inhibition generated from Assay 1” value was “A* (the compound had a % inhibition of a percent inhibition of greater than or equal to about 50%)”. Take `CC(C)Oc1ccc([C@@H](O)[C@@H](CN2CCCC2)NC(=O)C(F)(F)CCc2ccc3cc(F)ccc3c2)cn1` [Compound 97, 2,2-difluoro-4-(6-fluoronaphthalen-2-yl)-N-((1R,2R)-1-hydroxy-1-(6-isopropoxypyridin-3-yl)-3-(pyrrolidin-1-yl)propan-2-yl)butanamide]: the “% inhibition generated from Assay 1” value is reported as “A* (the compound had a % inhibition of a percent inhibition of greater than or equal to about 50%)”. Take `O=C(N[C@H](CN1CCC1)[C@H](O)c1cc(F)c2c(c1)OCCO2)C(=NO)c1cc2cc(Cl)ccc2o1` [Compound 98, N-((1R,2R)-3-(azetidin-1-yl)-1-(8-fluoro-2,3-dihydrobenzo[b][1,4]dioxin-6-yl)-1-hydroxypropan-2-yl)-2-(5-chlorobenzofuran-2-yl)-2-(hydroxyimino)acetamide]: the IC50 was less than 50 nM. On to `O=C(N[C@H](CN1CCCC1)[C@H](O)c1ccc(OC2CC2)nc1)C(F)(F)c1cc2cc(Cl)ccc2o1` [Compound 99, 2-(5-chlorobenzofuran-2-yl)-N-((1R,2R)-1-(6-cyclopropoxypyridin-3-yl)-1-hydroxy-3-(pyrrolidin-1-yl)propan-2-yl)-2,2-difluoroacetamide], for which the IC50 was less than 50 nM. As to `CC1CN(C[C@@H](NC(=O)C(=O)c2cc3cc(Cl)ccc3o2)[C@H](O)c2ccc3c(c2)OCCO3)C1` [Compound 100, 2-(5-chlorobenzofuran-2-yl)-N-((1R,2R)-1-(2,3-dihydrobenzo[b][1,4]dioxin-6-yl)-1-hydroxy-3-(3-methylazetidin-1-yl)propan-2-yl)-2-oxoacetamide], the “% inhibition generated from Assay 1” value is given as “B* (the compound had a % inhibition of greater than or equal to about 3% but less than about 50%)”. In the case of `O=C(N[C@H](CN1CCCC1)[C@H](O)c1ccc(OC2CC2)nc1)C(F)(F)CCc1ccc2cc(F)ccc2c1` [Compound 101, N-((1R,2R)-1-(6-cyclopropoxypyridin-3-yl)-1-hydroxy-3-(pyrrolidin-1-yl)propan-2-yl)-2,2-difluoro-4-(6-fluoronaphthalen-2-yl)butanamide], the IC50 is less than 50 nM. Turning to `CC1CN(C[C@@H](NC(=O)/C(=N/O)c2cc3cc(Cl)ccc3o2)[C@H](O)c2ccc3c(c2)OCCO3)C1` [Compound 102, (E)-2-(5-chlorobenzofuran-2-yl)-N-((1R,2R)-1-(2,3-dihydrobenzo[b][1,4]dioxin-6-yl)-1-hydroxy-3-(3-methylazetidin-1-yl)propan-2-yl)-2-(hydroxyimino)acetamide], the IC50 is less than 50 nM. For `O=C(N[C@H](CN1CCCC1)[C@H](O)c1cc(F)c2c(c1)OCCO2)/C(=N/O)c1cc2cc(Cl)ccc2o1` [Compound 104, (E)-2-(5-chlorobenzofuran-2-yl)-N-((1R,2R)-1-(8-fluoro-2,3-dihydrobenzo[b][1,4]dioxin-6-yl)-1-hydroxy-3-(pyrrolidin-1-yl)propan-2-yl)-2-(hydroxyimino)acetamide], the 50% inhibitory concentration (IC50) was less than 50 nM.

Values taken from patent US10227323B2, “Glucosylceramide synthase inhibitors for the treatment of diseases” (BIOMARIN PHARMACEUTICAL INC., priority 2013, dated 2019).
